test: recombinant UMI read abundance after kanamycin selection (control-corrected) (log10(CPM+1)); higher = more efficient recombination; extreme values may be limits of the assay; sequences stand for … in AGTGCAGAGAAAATCGGCCAGTTTTCTCTGCCTGCAGTCCGCATGCCGTGGGACCCCTTGGGTTCTAACCTGTTGCCTAGATTTATGCAGCGGACTGCCTTTCTCCCAAAGTGATAAACCGG…AGGTTGGTTTCACT; site = the 11-nt donor
How it was run: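 Sequenced counts of recombinant UMIs were turned into CPM, averaged across replicates and scaled with control-derived factors. The reported figure is log10(CPM+1). Those UMIs, each 12 nt long, tagged donor and donor-binding-loop pairs on a plasmid with a promoterless kanamycin gene, screened as a pool in Escherichia coli with IPTG (0.07 mM) plus kanamycin or without selection.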
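Further: IS621 bridge recombinase in Escherichia coli cells against a fixed T5 target plasmid.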

Row | Sequence | recombinant UMI read abundance (log10)
1 | CCACTATCATGGACCGGTTTTCCCGGTAATCCGTATTTGAC (site CCACTATCTGT) | 1.02
2 | TCAGAGGCATGGACCGGTTTTCCCGGTAATCCGTATTTGCG (site TCAGAGTCTCG) | 2.18
3 | TTAGCTGCATGGACCGGTTTTCCCGGTAATCCGTATTTGTG (site TTAGTTGCTCA) | 0.00547
4 | ATTTATGCATGGACCGGTTTTCCCGGTAATCCGTATTTGGA (site ATTTATGCTTC) | 0.0921
5 | CCTAATTCATGGACCGGTTTTCCCGGTAATCCGTATTTGAT (site CCTAATTCTAT) | 0
6 | CGCCGAACATGGACCGGTTTTCCCGGTAATCCGTATTTGCT (site CGCCGAACTAG) | 2.15
7 | CTAGTATCATGGACCGGTTTTCCCGGTAATCCGTATTTGAC (site CTAGTATCTAT) | 2.78
8 | TCCAAAGCATGGACCGGTTTTCCCGGTAATCCGTATTTGGA (site TCCAAAGCTTC) | 0.0225
9 | AGCTCAGCATGGACCGGTTTTCCCGGTAATCCGTATTTGGG (site AGCTTAGCTCC) | 0.0288
10 | CCTAAAGCATGGACCGGTTTTCCCGGTAATCCGTATTTGAT (site CATAAAGCTAT) | 0
11 | CTAGTATCATGGACCGGTTTTCCCGGTAATCCGTATTTGAC (site CAAGTAACTGT) | 0.0563
12 | CTTCTCTCATGGACCGGTTTTCCCGGTAATCCGTATTTGGA (site CTTCTCTCTTG) | 0
13 | TTCGCTGCATGGACCGGTTTTCCCGGTAATCCGTATTTGGG (site TTCGCTGCTCC) | 0.00922
14 | TCTAATTCATGGACCGGTTTTCCCGGTAATCCGTATTTGAA (site TCTAATTCTTT) | 0
15 | CCGGCACCATGGACCGGTTTTCCCGGTAATCCGTATTTGAT (site CCGGCACCTAT) | 0.00703
16 | GTTGTTCCATGGACCGGTTTTCCCGGTAATCCGTATTTGGT (site GTTGTTCCTCC) | 0.0221
17 | GGATCATCATGGACCGGTTTTCCCGGTAATCCGTATTTGCT (site AGATCATCTAG) | 0
18 | CCGCTCTCATGGACCGGTTTTCCCGGTAATCCGTATTTGTT (site CCGCTCTCTAA) | 1.51
19 | AGCCCTTCATGGACCGGTTTTCCCGGTAATCCGTATTTGAC (site AGCCTTTCTGT) | 0.00743
20 | AATGTATCATGGACCGGTTTTCCCGGTAATCCGTATTTGAC (site AATGTCTCTGT) | 0
21 | CCTAAAGCATGGACCGGTTTTCCCGGTAATCCGTATTTGAT (site CCTAAACCTAT) | 0.00391
22 | AGGAACACATGGACCGGTTTTCCCGGTAATCCGTATTTGCA (site AGGAAAACTTG) | 0
23 | TTATGACCATGGACCGGTTTTCCCGGTAATCCGTATTTGAC (site TTATGACCTGT) | 0
24 | AAATCGTCATGGACCGGTTTTCCCGGTAATCCGTATTTGCT (site AAATCGTCTAG) | 2.36
25 | TCCACCGCATGGACCGGTTTTCCCGGTAATCCGTATTTGGG (site TCCACCGCTCC) | 0.00928

Row | Sequence | recombinant UMI read abundance (log10)
26 | ATAGTTTCATGGACCGGTTTTCCCGGTAATCCGTATTTGAC (site CTAGTATCTGT) | 2.45
27 | CGCCGTCCATGGACCGGTTTTCCCGGTAATCCGTATTTGCT (site CGCCGTACTAG) | 0.0123
28 | AGGTATCCATGGACCGGTTTTCCCGGTAATCCGTATTTGTC (site AGGTATCCTGA) | 0.494
29 | GTAAGGCCATGGACCGGTTTTCCCGGTAATCCGTATTTGAC (site CTAAGGCCTGT) | 0
30 | ATCACATCATGGACCGGTTTTCCCGGTAATCCGTATTTGCG (site ATCACATCTCG) | 2.31
31 | AAGCACGCATGGACCGGTTTTCCCGGTAATCCGTATTTGGT (site AAGCACGCTGC) | 1.24
32 | CGTAAGACATGGACCGGTTTTCCCGGTAATCCGTATTTGAG (site CGTCAGACTCT) | 0.0684
33 | GTAGTTCCATGGACCGGTTTTCCCGGTAATCCGTATTTGGT (site GTCGTTCCTAC) | 0
34 | AACCTTCCATGGACCGGTTTTCCCGGTAATCCGTATTTGAT (site AACCATCCTAT) | 0.00673
35 | ACCACGCCATGGACCGGTTTTCCCGGTAATCCGTATTTGTA (site GCCACGCCTTA) | 0.00875
36 | TAACGTTCATGGACCGGTTTTCCCGGTAATCCGTATTTGTA (site TAACGTTCTTA) | 1.16
37 | GTCTATTCATGGACCGGTTTTCCCGGTAATCCGTATTTGAC (site GTCTATTCTGT) | 2.09
38 | CAATGCTCATGGACCGGTTTTCCCGGTAATCCGTATTTGAC (site CAATGCTCTAT) | 0.737
39 | CGCTTGGCATGGACCGGTTTTCCCGGTAATCCGTATTTGGA (site CCCTTGGCTTC) | 0
40 | CAGTGGACATGGACCGGTTTTCCCGGTAATCCGTATTTGGG (site CAGTCGACTCC) | 0.0117
41 | GGCGTAGCATGGACCGGTTTTCCCGGTAATCCGTATTTGTG (site GGCGTAGCTCA) | 0.747
42 | CCCATATCATGGACCGGTTTTCCCGGTAATCCGTATTTGAC (site CCCATATCTGG) | 0
43 | TTCACTACATGGACCGGTTTTCCCGGTAATCCGTATTTGAG (site TTCACTACTCT) | 0.00204
44 | CTAGTATCATGGACCGGTTTTCCCGGTAATCCGTATTTGAC (site TTAATATCTGT) | 0
45 | AGGTAAACATGGACCGGTTTTCCCGGTAATCCGTATTTGAG (site AGGTAAACTCT) | 2.07
46 | GGCCACCCATGGACCGGTTTTCCCGGTAATCCGTATTTGGT (site GGCCACCCTAT) | 0.0141
47 | CTCTACACATGGACCGGTTTTCCCGGTAATCCGTATTTGCA (site CTCTACACTCG) | 0.499
48 | CGATCGGCATGGACCGGTTTTCCCGGTAATCCGTATTTGAA (site CGATCGGCTTT) | 1.25
49 | GCAGTGGCATGGACCGGTTTTCCCGGTAATCCGTATTTGGT (site GCAGTGGCTAC) | 0.668
50 | ACACATACATGGACCGGTTTTCCCGGTAATCCGTATTTGAC (site ACACATGCTGT) | 1.74

Row | Sequence | recombinant UMI read abundance (log10)
51 | CGTGGACCATGGACCGGTTTTCCCGGTAATCCGTATTTGGG (site CGGGGACCTCC) | 0.028
52 | CTACAAACATGGACCGGTTTTCCCGGTAATCCGTATTTGGA (site CTACCAACTTC) | 0.0174
53 | GAGACGTCATGGACCGGTTTTCCCGGTAATCCGTATTTGCC (site GAGACGTCTGG) | 2.04
54 | TCAGAGACATGGACCGGTTTTCCCGGTAATCCGTATTTGCG (site TAAGAGACTCG) | 1.02
55 | CAATTCCCATGGACCGGTTTTCCCGGTAATCCGTATTTGCT (site CAATTTCCTAG) | 0
56 | TTACCTGCATGGACCGGTTTTCCCGGTAATCCGTATTTGTG (site TTAGCTGCTCA) | 0.00404
57 | CATTGAACATGGACCGGTTTTCCCGGTAATCCGTATTTGTT (site CATTGAACTAA) | 0.0984
58 | GGCCAACCATGGACCGGTTTTCCCGGTAATCCGTATTTGTT (site GGCCAACCTAA) | 0.00804
59 | AGCGATACATGGACCGGTTTTCCCGGTAATCCGTATTTGAA (site AGCGATACTTT) | 1.65
60 | CTGGAAACATGGACCGGTTTTCCCGGTAATCCGTATTTGCA (site CTAGAAACTTG) | 2.19
61 | CGTGGAACATGGACCGGTTTTCCCGGTAATCCGTATTTGTT (site CTTGGAACTAA) | 0.0161
62 | CATATTGCATGGACCGGTTTTCCCGGTAATCCGTATTTGCA (site CATATTGCTTG) | 0
63 | TTAGCAGCATGGACCGGTTTTCCCGGTAATCCGTATTTGCC (site TTAGCAGCTGG) | 2.61
64 | CTCTACACATGGACCGGTTTTCCCGGTAATCCGTATTTGGT (site CTCTACACTAC) | 0.0415
65 | CTGACATCATGGACCGGTTTTCCCGGTAATCCGTATTTGCT (site CCGACATCTAG) | 1.39
66 | CTGTACGCATGGACCGGTTTTCCCGGTAATCCGTATTTGGT (site CTGTACGCTAC) | 1.26
67 | CTAGTATCATGGACCGGTTTTCCCGGTAATCCGTATTTGAC (site CCAGTATCTGT) | 2.69
68 | GCTTGGCCATGGACCGGTTTTCCCGGTAATCCGTATTTGAT (site GCTTGTCCTAT) | 0.00708
69 | GCGCTAGCATGGACCGGTTTTCCCGGTAATCCGTATTTGCA (site GCGCTAGCTTG) | 2.2
70 | TTAGCTGCATGGACCGGTTTTCCCGGTAATCCGTATTTGTG (site TTACCTGCTCA) | 0.00862
71 | TCAGAGACATGGACCGGTTTTCCCGGTAATCCGTATTTGCG (site TCACAGACTCG) | 0.316
72 | GTGGAGGCATGGACCGGTTTTCCCGGTAATCCGTATTTGTC (site GTGGAGGCTAA) | 0.657
73 | GCGAAGCCATGGACCGGTTTTCCCGGTAATCCGTATTTGGG (site GCTAAGCCTCC) | 0.0212
74 | ATCTATACATGGACCGGTTTTCCCGGTAATCCGTATTTGAC (site ACCTATACTGT) | 0.944
75 | CCTATGTCATGGACCGGTTTTCCCGGTAATCCGTATTTGTC (site CCTATGTCTGA) | 0

Reference: the supplement of paper PMC11208160
